# Laboratory results from US20200199127A1, “(HETERO)ARYLALKYLAMINO-PYRAZOLOPYRIDAZINE DERIVATIVES HAVING MULTIMODAL ACTIVITY AGAINST PAIN” (priority 2017, published 2020).
# Legend:
# [1] = target: Human norepinephrine transporter (NET) (Homo sapiens, UniProt P23975); experiment: Binding assay to human norepinephrine transporter (NET), [3H]-Nisoxetin; conditions: human NET enriched membranes, 5 nM [3H]-Nisoxetin; Ki as class symbol
# Procedure: Binding Assay to Human Norepinephrine Transporter (NET).
# Human norepinephrine transporter (NET) enriched membranes (5 μg) were incubated with 5 nM of radiolabeled [3H]-Nisoxetin in assay buffer containing 50 mM Tris-HCl, 120 mM NaCl, 5 mM KCl, pH 7.4.
# NSB (non specific binding) was measured by adding 10 μM of desipramine. The binding of the test compound was measured at five different concentrations.. After 60 min incubation at 4° C., binding reaction was terminated by filtering through Multiscreen GF/C (Millipore) presoaked in 0.5% polyethyleneimine in Vacuum Manifold Station, followed by 3 washes with ice-cold filtration buffer containing 50 mM Tris-HCl, 0.9% NaCl, pH 7.4.
# Filter plates were dried at 60° C. for 1 hour and 30 μl of scintillation cocktail were added to each well before radioactivity reading.
# [2] = target: Human α2δ-1 subunit of Cav2.2 calcium channel (Homo sapiens, UniProt P54289); experiment: Human α2δ-1 subunit of Cav2.2 calcium channel assay, [3H]-Gabapentin binding; conditions: human α2δ-1 enriched membranes, 15 nM [3H]-Gabapentin; Ki as class symbol
# Chain of Human α2δ-1 subunit of Cav2.2 calcium channel (P54289 25-1103): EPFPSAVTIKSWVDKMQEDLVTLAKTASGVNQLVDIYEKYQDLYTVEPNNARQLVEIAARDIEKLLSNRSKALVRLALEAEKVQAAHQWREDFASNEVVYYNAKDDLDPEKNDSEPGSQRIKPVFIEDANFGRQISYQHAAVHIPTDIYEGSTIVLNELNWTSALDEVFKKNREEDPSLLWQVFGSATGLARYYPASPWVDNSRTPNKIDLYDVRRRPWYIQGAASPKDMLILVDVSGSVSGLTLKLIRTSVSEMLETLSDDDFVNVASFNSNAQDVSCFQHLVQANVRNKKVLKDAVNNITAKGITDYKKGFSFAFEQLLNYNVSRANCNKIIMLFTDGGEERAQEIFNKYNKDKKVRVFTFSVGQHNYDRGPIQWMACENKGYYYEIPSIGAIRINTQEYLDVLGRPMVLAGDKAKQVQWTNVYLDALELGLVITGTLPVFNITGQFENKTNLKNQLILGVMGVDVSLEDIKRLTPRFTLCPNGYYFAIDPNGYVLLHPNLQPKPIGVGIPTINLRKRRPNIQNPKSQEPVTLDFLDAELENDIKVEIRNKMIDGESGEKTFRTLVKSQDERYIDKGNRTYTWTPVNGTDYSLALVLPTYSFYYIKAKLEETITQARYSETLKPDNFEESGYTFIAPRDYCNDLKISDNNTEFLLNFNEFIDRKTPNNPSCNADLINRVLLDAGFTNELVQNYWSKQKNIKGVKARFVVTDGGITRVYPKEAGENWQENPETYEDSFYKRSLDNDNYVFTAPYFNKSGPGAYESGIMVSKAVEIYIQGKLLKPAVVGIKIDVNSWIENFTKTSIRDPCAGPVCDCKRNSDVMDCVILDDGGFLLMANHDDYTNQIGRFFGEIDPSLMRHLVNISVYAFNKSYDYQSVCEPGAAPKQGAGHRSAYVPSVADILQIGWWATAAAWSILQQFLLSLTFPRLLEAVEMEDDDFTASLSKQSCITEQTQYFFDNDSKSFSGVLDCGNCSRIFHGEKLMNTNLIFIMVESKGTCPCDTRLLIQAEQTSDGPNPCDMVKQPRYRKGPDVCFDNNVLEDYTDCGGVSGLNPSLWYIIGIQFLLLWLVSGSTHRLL
# Procedure: Human α2δ-1 Subunit of Cav2.2 Calcium Channel Assay
# Human α2δ-1 enriched membranes (2.5 μg) were incubated with 15 nM of radiolabeled [3H]-Gabapentin in assay buffer containing Hepes-KOH 10 mM, pH 7.4. NSB (non specific binding) was measured by adding 10 μM pregabalin. The binding of the test compound was measured at five different concentrations. After 60 min incubation at 27° C., binding reaction was terminated by filtering through Multiscreen GF/C (Millipore) presoaked in 0.5% polyethyleneimine in Vacuum Manifold Station, followed by 3 washes with ice-cold filtration buffer containing 50 mM Tris-HCl, pH 7.4. Filter plates were dried at 60° C. for 1 hour and 30 μl of scintillation cocktail were added to each well before radioactivity reading. Readings were performed in a Trilux 1450 Microbeta radioactive counter (Perkin Elmer).
# Chain of Human norepinephrine transporter (NET) (P23975 whole entry): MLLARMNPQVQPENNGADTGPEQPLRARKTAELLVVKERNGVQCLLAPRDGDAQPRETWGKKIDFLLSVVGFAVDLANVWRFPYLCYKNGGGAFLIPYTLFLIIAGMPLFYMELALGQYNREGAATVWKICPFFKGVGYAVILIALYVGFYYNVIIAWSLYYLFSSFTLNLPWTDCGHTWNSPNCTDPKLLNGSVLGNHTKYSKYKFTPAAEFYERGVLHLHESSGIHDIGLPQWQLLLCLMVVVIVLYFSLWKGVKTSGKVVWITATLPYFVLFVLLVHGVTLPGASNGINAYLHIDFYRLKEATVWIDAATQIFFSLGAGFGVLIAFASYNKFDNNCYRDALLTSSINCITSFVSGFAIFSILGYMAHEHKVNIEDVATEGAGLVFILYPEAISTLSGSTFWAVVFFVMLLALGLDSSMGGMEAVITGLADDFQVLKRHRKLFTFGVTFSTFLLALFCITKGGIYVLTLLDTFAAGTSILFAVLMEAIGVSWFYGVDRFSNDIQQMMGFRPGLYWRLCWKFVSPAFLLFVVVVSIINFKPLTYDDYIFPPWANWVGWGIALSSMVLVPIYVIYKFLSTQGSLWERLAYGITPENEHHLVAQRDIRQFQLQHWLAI
Structure (SMILES),Ki [1] [µM],Ki [2] [µM]
"CCOc1ccc(-n2nc3c(N(C)CCCc4ccccc4O)nnc(C)c3c2C)c(F)c1 [Example 21, 2-(3-((2-(4-ethoxy-2-fluorophenyl)-3,4-dimethyl-2H-pyrazolo[3,4-d]pyridazin-7-yl)(methyl)amino)propyl)phenol]",0.5 to 1,≥ 5
"CCOc1ccc(-n2nc3c(NCc4cc(C)ccn4)nnc(C)c3c2C)c(F)c1 [Example 22, 2-(4-ethoxy-2-fluorophenyl)-3,4-dimethyl-N-((4-methylpyridin-2-yl)methyl)-2H-pyrazolo[3,4-d]pyridazin-7-amine]",> 1,0.1 to 0.5
"CCOc1ccc(-n2nc3c(N(C)Cc4ccccc4O)nnc(C)c3c2C)c(F)c1 [Example 23, 2-(((2-(4-ethoxy-2-fluorophenyl)-3,4-dimethyl-2H-pyrazolo[3,4-d]pyridazin-7-yl)(methyl)amino)methyl)phenol]",0.5 to 1,0.1 to 0.5
"CCOc1ccc(-n2nc3c(N(C)Cc4cnc[nH]4)nnc(C)c3c2C)c(F)c1 [Example 24, N-((1H-imidazol-5-yl)methyl)-2-(4-ethoxy-2-fluorophenyl)-N,3,4-trimethyl-2H-pyrazolo[3,4-d]pyridazin-7-amine]",> 1,0.1 to 0.5
"CCOc1ccc(-n2nc3c(N(C)Cc4ncc[nH]4)nnc(C)c3c2C)c(F)c1 [Example 25, N-((1H-imidazol-2-yl)methyl)-2-(4-ethoxy-2-fluorophenyl)-N,3,4-trimethyl-2H-pyrazolo[3,4-d]pyridazin-7-amine]",> 1,0.5 to 5
"CCOc1ccc(-n2nc3c(N(C)Cc4ncccn4)nnc(C)c3c2C)c(F)c1 [Example 26, 2-(4-ethoxy-2-fluorophenyl)-N,3,4-trimethyl-N-(pyrimidin-2-ylmethyl)-2H-pyrazolo[3,4-d]pyridazin-7-amine]",> 1,0.1 to 0.5
"CCOc1ccc(-n2nc3c(N(C)Cc4ccon4)nnc(C)c3c2C)c(F)c1 [Example 27, 2-(4-ethoxy-2-fluorophenyl)-N-(isoxazol-3-ylmethyl)-N,3,4-trimethyl-2H-pyrazolo[3,4-d]pyridazin-7-amine]",> 1,0.5 to 5
"CCOc1ccc(-n2nc3c(N(C)Cc4ccn[nH]4)nnc(C)c3c2C)c(F)c1 [Example 28, N-((1H-pyrazol-5-yl)methyl)-2-(4-ethoxy-2-fluorophenyl)-N,3,4-trimethyl-2H-pyrazolo[3,4-d]pyridazin-7-amine]",> 1,0.1 to 0.5
"CCOc1ccc(-n2nc3c(N(C)Cc4cscn4)nnc(C)c3c2C)c(F)c1 [Example 29, 2-(4-ethoxy-2-fluorophenyl)-N,3,4-trimethyl-N-(thiazol-4-ylmethyl)-2H-pyrazolo[3,4-d]pyridazin-7-amine]",> 1,0.1 to 0.5
"CCOc1ccc(-n2nc3c(N(C)Cc4cccc(OC)n4)nnc(C)c3c2C)c(F)c1 [Example 30, 2-(4-ethoxy-2-fluorophenyl)-N-((6-methoxypyridin-2-yl)methyl)-N,3,4-trimethyl-2H-pyrazolo[3,4-d]pyridazin-7-amine]",0.5 to 1,0.1 to 0.5
"CCOc1ccc(-n2nc3c(N(C)Cc4cc(OC)ccn4)nnc(C)c3c2C)c(F)c1 [Example 31, 2-(4-ethoxy-2-fluorophenyl)-N-((4-methoxypyridin-2-yl)methyl)-N,3,4-trimethyl-2H-pyrazolo[3,4-d]pyridazin-7-amine]",> 1,0.1 to 0.5
"CCOc1ccc(-n2nc3c(N(C)Cc4ncccc4C)nnc(C)c3c2C)c(F)c1 [Example 32, 2-(4-ethoxy-2-fluorophenyl)-N,3,4-trimethyl-N-((3-methylpyridin-2-yl)methyl)-2H-pyrazolo[3,4-d]pyridazin-7-amine]",0.1 to 0.5,0.1 to 0.5
"CCOc1ccc(-n2nc3c(N(C)Cc4ncccc4F)nnc(C)c3c2C)c(F)c1 [Example 33, 2-(4-ethoxy-2-fluorophenyl)-N-((3-fluoropyridin-2-yl)methyl)-N,3,4-trimethyl-2H-pyrazolo[3,4-d]pyridazin-7-amine]",0.1 to 0.5,0.1 to 0.5
"CCOc1ccc(-n2nc3c(N(C)Cc4ccc(C)cn4)nnc(C)c3c2C)c(F)c1 [Example 34, 2-(4-ethoxy-2-fluorophenyl)-N,3,4-trimethyl-N-((5-methylpyridin-2-yl)methyl)-2H-pyrazolo[3,4-d]pyridazin-7-amine]",> 1,0.1 to 0.5
"CCOc1ccc(-n2nc3c(N(C)Cc4cnccn4)nnc(C)c3c2C)c(F)c1 [Example 35, 2-(4-ethoxy-2-fluorophenyl)-N,3,4-trimethyl-N-(pyrazin-2-ylmethyl)-2H-pyrazolo[3,4-d]pyridazin-7-amine]",> 1,0.1 to 0.5
"CCOc1ccc(-n2nc3c(N(C)Cc4ccncn4)nnc(C)c3c2C)c(F)c1 [Example 36, 2-(4-ethoxy-2-fluorophenyl)-N,3,4-trimethyl-N-(pyrimidin-4-ylmethyl)-2H-pyrazolo[3,4-d]pyridazin-7-amine]",> 1,0.1 to 0.5
"CCOc1ccc(-n2nc3c(NCc4ccccc4CO)nnc(C)c3c2C)c(F)c1 [Example 37, (2-(((2-(4-ethoxy-2-fluorophenyl)-3,4-dimethyl-2H-pyrazolo[3,4-d]pyridazin-7-yl)amino)methyl)phenyl)methanol]",> 1,0.1 to 0.5
"CCOc1ccc(-n2nc3c(N(C)CCC(N)c4ccccc4)nnc(C)c3c2C)c(F)c1 (centres unmarked) [Example 39, N1-(2-(4-ethoxy-2-fluorophenyl)-3,4-dimethyl-2H-pyrazolo[3,4-d]pyridazin-7-yl)-N1-methyl-3-phenylpropane-1,3-diamine]",0.5 to 1,≥ 5
"CCOc1ccc(-n2nc3c(N(CC)Cc4ccccn4)nnc(C)c3c2C)c(F)c1 [Example 40, 2-(4-ethoxy-2-fluorophenyl)-N-ethyl-3,4-dimethyl-N-(pyridin-2-ylmethyl)-2H-pyrazolo[3,4-d]pyridazin-7-amine]",0.1 to 0.5,0.5 to 5
"CCOc1ccc(-n2nc3c(N(C)Cc4ccccc4CNC)nnc(C)c3c2C)c(F)c1 [Example 43, 2-(4-ethoxy-2-fluorophenyl)-N,3,4-trimethyl-N-(2-((methylamino)methyl)benzyl)-2H-pyrazolo[3,4-d]pyridazin-7-amine]",0.1 to 0.5,0.5 to 5
"COc1ccc(-n2nc3c(N(C)Cc4ccccn4)nnc(C)c3c2C)c(F)c1 [Example 45, 2-(2-fluoro-4-methoxyphenyl)-N,3,4-trimethyl-N-(pyridin-2-ylmethyl)-2H-pyrazolo[3,4-d]pyridazin-7-amine]",> 1,≥ 5
"Cc1nnc(N(C)Cc2ccccn2)c2nn(-c3ccc(O)cc3)c(C)c12 [Example 47, 4-(3,4-dimethyl-7-(methyl(pyridin-2-ylmethyl)amino)-2H-pyrazolo[3,4-d]pyridazin-2-yl)phenol]",> 1,≥ 5
"COc1ccc(-n2nc3c(N(C)Cc4ccccn4)nnc(C)c3c2C)cc1 [Example 48, 2-(4-methoxyphenyl)-N,3,4-trimethyl-N-(pyridin-2-ylmethyl)-2H-pyrazolo[3,4-d]pyridazin-7-amine]",> 1,0.5 to 5
"CCOc1ccc(-n2nc3c(N(CCO)Cc4ccncc4)nnc(C)c3c2C)c(F)c1 [Example 53, 2-((2-(4-Ethoxy-2-fluorophenyl)-3,4-dimethyl-2H-pyrazolo[3,4-d]pyridazin-7-yl)(pyridin-4-ylmethyl)amino)ethanol]",> 1,≥ 5
"CCOc1ccc(-n2nc3c(N(C)C(CCO)c4ccccc4)nnc(C)c3c2C)c(F)c1 (centres unmarked) [Example 54, 3-((2-(4-ethoxy-2-fluorophenyl)-3,4-dimethyl-2H-pyrazolo[3,4-d]pyridazin-7-yl)(methyl)amino)-3-phenylpropan-1-ol]",> 1,0.5 to 5
"CCOc1ccc(-n2nc3c(N(CCO)Cc4ccccn4)nnc(C)c3c2C)c(F)c1 [Example 56, 2-((2-(4-ethoxy-2-fluorophenyl)-3,4-dimethyl-2H-pyrazolo[3,4-d]pyridazin-7-yl)(pyridin-2-ylmethyl)amino)ethanol]",0.5 to 1,0.5 to 5
"CCOc1ccc(-n2nc3c(N(CCO)Cc4cccnc4)nnc(C)c3c2C)c(F)c1 [Example 57, 2-((2-(4-ethoxy-2-fluorophenyl)-3,4-dimethyl-2H-pyrazolo[3,4-d]pyridazin-7-yl)(pyridin-3-ylmethyl)amino)ethanol]",> 1,≥ 5
"CCOc1ccc(-n2nc3c(N(C)CCn4cnc5ccccc54)nnc(C)c3c2C)c(F)c1 [Example 58, N-(2-(1H-Benzo[d]imidazol-1-yl)ethyl)-2-(4-ethoxy-2-fluorophenyl)-N,3,4-trimethyl-2H-pyrazolo[3,4-d]pyridazin-7-amine]",> 1,0.5 to 5
